Data on two compounds can be found in BindingDB's records for doi:10.1016/0960-894X(95)00370-9 (1995).

This test deals with Type-1 angiotensin II receptor A (Rattus norvegicus) (UniProt P25095). Description: Tested for binding affinity against angiotensin II receptor in rat adrenal cortex.
Chain of Type-1 angiotensin II receptor A (Rattus norvegicus) (P25095 whole entry, looked up): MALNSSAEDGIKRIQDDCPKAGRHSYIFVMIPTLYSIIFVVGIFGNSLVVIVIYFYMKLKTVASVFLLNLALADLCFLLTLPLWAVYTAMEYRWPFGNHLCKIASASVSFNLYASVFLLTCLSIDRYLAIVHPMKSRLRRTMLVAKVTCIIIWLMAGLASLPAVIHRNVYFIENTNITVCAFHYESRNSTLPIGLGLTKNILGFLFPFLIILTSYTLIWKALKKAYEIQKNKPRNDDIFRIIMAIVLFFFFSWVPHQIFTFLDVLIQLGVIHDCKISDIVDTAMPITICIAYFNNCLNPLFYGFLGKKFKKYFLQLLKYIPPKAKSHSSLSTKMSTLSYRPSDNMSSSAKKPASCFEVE

Take `CCCc1cc(=O)n(CCN2C(=O)c3ccccc3C2=O)c(=O)n1Cc1ccc(-c2ccccc2-c2nnn[nH]2)cc1` [2-(2-{2,6-Dioxo-4-propyl-3-[2'-(1H-tetrazol-5-yl)-biphenyl-4-ylmethyl]-3,6-dihydro-2H-pyrimidin-1-yl}-ethyl)-isoindole-1,3-dione]: the half-maximal inhibitory concentration (IC50) (as a rule, the concentration that gives 50% inhibition) was found to be 4.4 nM. This lies in the single-digit nanomolar range. `CCCc1cc(=O)n(CCNC(=O)C(c2ccccc2)c2ccccc2)c(=O)n1Cc1ccc(-c2ccccc2-c2nnn[nH]2)cc1` [N-(2-{2,6-Dioxo-4-propyl-3-[2'-(1H-tetrazol-5-yl)-biphenyl-4-ylmethyl]-3,6-dihydro-2H-pyrimidin-1-yl}-ethyl)-2,2-diphenyl-acetamide] registered an IC50 of 14 nM.
